One block for each compound: values may come before it.
Experiments:
[1] = target: T1, MMP2 binding to integrin αvβ3 (Homo sapiens, UniProt P05106+P06756); assay: Solid phase integrin binding assay: biotinylated MMP2 binding to immobilized integrin; conditions: bMMP2 3-5 nM, FIG. 2A
T1 construct: purchased Merck KGaA or Chemicon International (integrin); Chemicon (proMMP2) or Calbiochem (active MMP2)
Description: (§1) Purified integrins were adsorbed overnight onto microtiter wells (1-5 μg/ml, […]) prior to blocking with Caseinblocker (Pierce, Rockford, Ill.). Purified biotinylated MMP2 (bMMP2, 3-5 nM) in binding buffer (50 mM Tris, pH 8, 150 mM NaCl, 1 mM MgCl2, 0.5 mM MnCl2) was added to the wells in the presence or absence of Compound 1, Compound 12, cyclic RGD or RAD peptides, or buffer vehicle alone. Control wells received no integrin. Biotinylated vitronectin (bVN, 1 μg/ml) was used as a reference. Bound protein was detected with HRP-anti-biotin mAb and quantitated at 450 nm with 3,3′,5,5′-tetramethylbenzidine solution (TMB; a substrate for the peroxidase) (BioRad, Hercules, Calif.).

[2] = target: T2, MMP2 and tissue inhibitor of metalloproteinase 2 (TIMP2) (Homo sapiens, UniProt P08253); assay: Binding between MMP2 and TIMP2
T2 sequence (P08253 110-660): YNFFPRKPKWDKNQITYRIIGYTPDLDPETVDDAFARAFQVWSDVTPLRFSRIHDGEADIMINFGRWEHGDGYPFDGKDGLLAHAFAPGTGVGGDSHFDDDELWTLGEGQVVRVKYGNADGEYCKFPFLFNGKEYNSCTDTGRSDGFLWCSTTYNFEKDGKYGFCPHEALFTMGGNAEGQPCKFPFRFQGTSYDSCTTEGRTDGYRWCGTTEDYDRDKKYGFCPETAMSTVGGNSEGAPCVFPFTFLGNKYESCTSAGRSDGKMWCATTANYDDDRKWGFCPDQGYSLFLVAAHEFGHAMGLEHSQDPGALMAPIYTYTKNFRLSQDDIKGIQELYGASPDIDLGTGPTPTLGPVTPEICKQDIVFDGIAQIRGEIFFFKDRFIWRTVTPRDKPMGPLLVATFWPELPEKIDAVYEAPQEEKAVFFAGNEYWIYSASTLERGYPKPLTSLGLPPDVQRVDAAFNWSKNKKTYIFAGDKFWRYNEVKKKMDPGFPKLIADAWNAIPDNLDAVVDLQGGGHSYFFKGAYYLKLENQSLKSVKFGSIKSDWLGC

integrin αvβ3 = target: T3, integrin αvβ3 (Homo sapiens, UniProt P05106+P06756); assay: Direct binding of [14C]-Compound 1 to immobilized integrin, solid phase
T3 construct: purchased Merck KGaA or Chemicon International
Description: (§2) Dried wells were separated and immersed in BetaMax liquid scintillation cocktail (ICN Biochemicals, Costa Mesa, Calif.) for quantitation. From this binding curve a subsaturating concentration (3 μM) of [^14C]-Compound 1 was examined in the presence and absence of a 25-fold molar excess ([…]) of unlabeled Compound 1 or Compound 12, or 100 μM cyclic RGD or RAD peptide. Control was bVN, used and detected as described above.

integrin α5β1 = integrin α5β1 (Homo sapiens, UniProt P05556+P08648); assay: Direct binding of [14C]-Compound 1 to immobilized control integrin, solid phase
Description: as §2

MMP2 [3] = target: T4, MMP2 (Homo sapiens, UniProt P08253); assay: Direct binding of Compound 1 to MMP2 coated on the microtiter well; conditions: data not shown
T4 construct: purchased Calbiochem (La Jolla, Calif.)
T4 sequence (P08253 110-660): T2 sequence (P08253 110-660)

β3CS-1 cells [4] = assay: Cell-mediated [3H]-collagen IV degradation via MMP2; format: cell-based, hamster; conditions: 4 nM active MMP2, 10 μM compound, FIG. 3A
Description: (§3) Wells had been coated overnight with 50 μl of 0.414 mCi/ml [^3H]-collagen IV (ICN Biochemicals, Costa Mesa, Calif.) and washed extensively until the radioactivity in the recovered wash solution reached background. Alternatively, cells were treated as above in the absence of MMP2, or the MMP2 solutions were added directly to the wells without cells, as controls. Collagen IV degradation was quantitated by measuring the radioactivity released into the 50 μl of culture medium as determined in a liquid scintillation counter. For the assessment of biotinylated MMP2 binding to CS-1 cells, cells were suspended in adhesion buffer and incubated with 12 nM bMMP2 for 45 minutes at 37° C. in the presence or absence of 10 μM Compound 1 or Compound 12. Cells were subsequently washed before lysis and processing for SDS-PAGE and immunoblotting with an anti-biotin mAb.

MMP2 [5] = target: T4, MMP2; assay: [3H]-collagen IV degradation by purified active MMP2 without cells; format: biochemical; conditions: 4 nM active MMP2, 10 μM compound, no cells
Description: as §3, with “CS-1 cells or β3CS-1 cells were incubated in adhesion buffer fibroblast basal medium (FBM) supplemented with 0.5% bovine serum albumin (BSA), 0.4 mM MnCl2 and 10 μg/ml aprotinin) containing either 4 nM purified active MMP2 alone, or in combination with 10 μM Compound 1 or Compound 12 for 45 minutes at 37° C. prior to washing and addition to the [^3H]-collagen IV-coated wells. Wells” for “Wells”

CS-1 cells = assay: Biotinylated MMP2 cell-binding assay, β3-negative cells; format: cell-based, hamster; conditions: 12 nM bMMP2, 10 μM compound; FIG. 3B
Description: as §3

β3CS-1 cells [6] = assay: Biotinylated MMP2 cell-binding assay, β3-positive cells; format: cell-based, hamster
Description: CS-1 cells or β3CS-1 cells were incubated in adhesion buffer fibroblast basal medium (FBM) supplemented with 0.5% bovine serum albumin (BSA), 0.4 mM MnCl2 and 10 μg/ml aprotinin) containing either 4 nM purified active MMP2 alone, or in combination with 10 μM Compound 1 or Compound 12 for 45 minutes at 37° C. prior to washing and addition to the [^3H]-collagen IV-coated wells. Wells had been coated overnight with 50 μl of 0.414 mCi/ml [^3H]-collagen IV (ICN Biochemicals, Costa Mesa, Calif.) and washed extensively until the radioactivity in the recovered wash solution reached background. Alternatively, cells were treated as above in the absence of MMP2, or the MMP2 solutions were added directly to the wells without cells, as controls. Collagen IV degradation was quantitated by measuring the radioactivity released into the 50 μl of culture medium as determined in a liquid scintillation counter. […]
Immunoblotting. Equal quantities of protein were separated by SDS-PAGE under reducing conditions and electroblotted to an Immobilon-P membrane (Millipore, Bedford, Md.). The membrane was blocked and immobilized proteins were detected by incubation with an antigen-specific primary antibody, followed by an HRP-conjugated secondary antibody as required. […]

[7] = test system: bFGF-induced angiogenesis on chick CAM; assay: Chick chorioallantoic membrane (CAM) angiogenesis assay; format: in vivo; conditions: 10 day chick CAM, 3 μg/ml bFGF, 20 μl of 3 μM compound, 3 days; FIGS. 4A, 4B
Description: (§4) Angiogenesis was assessed essentially as described previously (Cell, 85, 683-93 (1996); Cell, 92, 391-400 (1998)). After stimulation with 3 μg/ml of basic fibroblast growth factor (bFGF), 10 day chick embryo CAMs were treated with 20 μl of 3 μM Compound 1 or Compound 12. Three days after induction, the CAMs were quantitated in a blind evaluation. CAMs from each group were pooled, minced, and extracted with 50 mM Tris, […], 0.1% Triton X-100 containing COMPLETE-brand protease inhibitor cocktail without EDTA (Boehringer, Mannheim, Germany) prior to analysis by zymography.

MMP2 [8] = assay: Zymography of chick CAM lysates; format: in vivo; conditions: FIG. 4C
Description: as §4
Zymography. Chick CAM lysates were prepared as described above and equal quantities of protein were separated in the absence of reducing agents or boiling on polyacrylamide gels embedded with 0.2% gelatin. The gels were washed with 2% Triton X-100, followed by extensive washing with water prior to overnight incubation at 37° C. in collagenase buffer (50 mM Tris 7.4, 200 mM NaCl 10 mM CaCl2). Gelatinolytic activity was visualized by staining the gels with 0.5% Coomassie blue.

[9] = test system: αvβ3-negative CS-1 melanoma tumors; assay: Tumor growth assay on chick CAM; format: in vivo
Description: Primary tumors were grown on CAMs of 9-day embryos by implantation 5×10^6 CS-1 cells and incubation for 7 days. At this point, 50 mg sections of these tumors were subcultured onto fresh 9-day CAMs and allowed to implant for 24 hours before a single intravenous (IV) injection with 100 μl of 100 μM of test compounds in Hank's Balanced Saline Solution (HBSS). Buffer alone was used as control. Tumors were incubated for a total of 10 days, harvested and trimmed free of excess stromal tissue before determining wet weight and processing for histology.
Snap-frozen CS-1 tumor sections were fixed with 4% paraformaldehyde and permeablized with 0.1% Triton X-100. Sections were blocked with 5% bovine serum albumin (BSA) in phosphate buffered saline (PBS) prior to staining with an anti-vWF pAb and visualization with an Alexa 568-conjugated anti-rabbit secondary antibody. Samples were analyzed on a MRC1024 confocal microscope (BioRad, Hercules, Calif.). Blood vessel density was quantitated with a 20×objective on four fields per section and four tumors per condition.

CS-1 melanoma cells = assay: In vitro growth of melanoma cells in co-culture with compound; format: cell-based, hamster; conditions: co-culture with the compound; data not shown
[10] = target: T5, vitronectin binding to integrin αvβ3 (Homo sapiens, UniProt P05106+P06756); assay: Solid phase integrin binding assay: biotinylated vitronectin (bVN) binding to immobilized integrin
T5 construct: purchased Merck KGaA or Chemicon International (integrin)
Description: as §1, §2

T1 sequence (P06756 31-889 limits assumed): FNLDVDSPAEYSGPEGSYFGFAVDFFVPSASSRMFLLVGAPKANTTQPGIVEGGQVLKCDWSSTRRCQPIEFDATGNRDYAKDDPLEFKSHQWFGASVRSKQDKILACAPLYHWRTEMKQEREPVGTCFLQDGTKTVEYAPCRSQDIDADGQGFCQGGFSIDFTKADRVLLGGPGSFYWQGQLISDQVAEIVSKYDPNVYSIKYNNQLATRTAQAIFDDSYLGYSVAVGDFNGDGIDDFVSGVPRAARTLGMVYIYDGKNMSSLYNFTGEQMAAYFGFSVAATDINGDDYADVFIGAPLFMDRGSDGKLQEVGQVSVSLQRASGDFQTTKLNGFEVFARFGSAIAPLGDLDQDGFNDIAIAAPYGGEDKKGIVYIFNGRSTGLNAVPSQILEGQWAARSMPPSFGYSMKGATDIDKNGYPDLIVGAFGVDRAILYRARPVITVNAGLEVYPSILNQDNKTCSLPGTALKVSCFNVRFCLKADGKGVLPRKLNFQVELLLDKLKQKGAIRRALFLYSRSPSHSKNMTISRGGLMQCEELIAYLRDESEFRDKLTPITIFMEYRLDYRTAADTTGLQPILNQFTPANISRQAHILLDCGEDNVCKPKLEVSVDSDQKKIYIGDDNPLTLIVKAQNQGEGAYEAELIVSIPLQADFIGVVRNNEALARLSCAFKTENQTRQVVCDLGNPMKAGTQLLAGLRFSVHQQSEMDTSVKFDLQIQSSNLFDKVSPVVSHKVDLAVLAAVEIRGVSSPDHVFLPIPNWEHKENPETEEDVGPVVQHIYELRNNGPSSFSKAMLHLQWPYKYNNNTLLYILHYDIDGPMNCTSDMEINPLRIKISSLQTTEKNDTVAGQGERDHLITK
T1 sequence (P06756 891-1048 limits assumed): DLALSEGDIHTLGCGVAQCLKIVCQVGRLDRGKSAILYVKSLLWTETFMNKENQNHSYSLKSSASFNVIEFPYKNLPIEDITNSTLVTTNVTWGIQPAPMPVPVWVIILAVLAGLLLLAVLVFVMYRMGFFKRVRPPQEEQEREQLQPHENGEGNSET
T1 sequence (P05106 27-788): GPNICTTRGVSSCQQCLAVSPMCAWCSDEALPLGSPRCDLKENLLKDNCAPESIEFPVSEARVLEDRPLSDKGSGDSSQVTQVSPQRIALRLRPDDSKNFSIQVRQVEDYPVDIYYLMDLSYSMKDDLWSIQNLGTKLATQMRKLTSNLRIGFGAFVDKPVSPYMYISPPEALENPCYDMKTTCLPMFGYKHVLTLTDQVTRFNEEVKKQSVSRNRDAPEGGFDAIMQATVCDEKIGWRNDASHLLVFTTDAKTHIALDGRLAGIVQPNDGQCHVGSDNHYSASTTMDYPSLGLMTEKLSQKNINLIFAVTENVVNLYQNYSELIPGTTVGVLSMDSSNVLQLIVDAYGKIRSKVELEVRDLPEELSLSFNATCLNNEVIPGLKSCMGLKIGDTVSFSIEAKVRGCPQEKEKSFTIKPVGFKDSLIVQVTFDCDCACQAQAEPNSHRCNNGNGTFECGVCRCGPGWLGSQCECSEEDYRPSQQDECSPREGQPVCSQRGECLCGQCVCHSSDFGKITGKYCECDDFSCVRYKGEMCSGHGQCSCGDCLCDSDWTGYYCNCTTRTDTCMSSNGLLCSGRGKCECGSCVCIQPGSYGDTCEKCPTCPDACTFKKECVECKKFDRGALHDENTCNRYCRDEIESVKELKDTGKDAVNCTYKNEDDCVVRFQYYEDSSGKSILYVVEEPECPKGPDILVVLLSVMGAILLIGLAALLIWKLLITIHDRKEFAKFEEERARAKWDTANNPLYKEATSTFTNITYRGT
T3 sequence (P06756 31-889 limits assumed): as the sequence (P06756 31-889 limits assumed) above
T3 sequence (P06756 891-1048 limits assumed): as the sequence (P06756 891-1048 limits assumed) above
T3 sequence (P05106 27-788): as the sequence (P05106 27-788) above
T5 sequence (P06756 31-889 limits assumed): as the sequence (P06756 31-889 limits assumed) above
T5 sequence (P06756 891-1048 limits assumed): as the sequence (P06756 891-1048 limits assumed) above
T5 sequence (P05106 27-788): as the sequence (P05106 27-788) above
integrin α5β1, sequence (P08648 42-894 limits assumed): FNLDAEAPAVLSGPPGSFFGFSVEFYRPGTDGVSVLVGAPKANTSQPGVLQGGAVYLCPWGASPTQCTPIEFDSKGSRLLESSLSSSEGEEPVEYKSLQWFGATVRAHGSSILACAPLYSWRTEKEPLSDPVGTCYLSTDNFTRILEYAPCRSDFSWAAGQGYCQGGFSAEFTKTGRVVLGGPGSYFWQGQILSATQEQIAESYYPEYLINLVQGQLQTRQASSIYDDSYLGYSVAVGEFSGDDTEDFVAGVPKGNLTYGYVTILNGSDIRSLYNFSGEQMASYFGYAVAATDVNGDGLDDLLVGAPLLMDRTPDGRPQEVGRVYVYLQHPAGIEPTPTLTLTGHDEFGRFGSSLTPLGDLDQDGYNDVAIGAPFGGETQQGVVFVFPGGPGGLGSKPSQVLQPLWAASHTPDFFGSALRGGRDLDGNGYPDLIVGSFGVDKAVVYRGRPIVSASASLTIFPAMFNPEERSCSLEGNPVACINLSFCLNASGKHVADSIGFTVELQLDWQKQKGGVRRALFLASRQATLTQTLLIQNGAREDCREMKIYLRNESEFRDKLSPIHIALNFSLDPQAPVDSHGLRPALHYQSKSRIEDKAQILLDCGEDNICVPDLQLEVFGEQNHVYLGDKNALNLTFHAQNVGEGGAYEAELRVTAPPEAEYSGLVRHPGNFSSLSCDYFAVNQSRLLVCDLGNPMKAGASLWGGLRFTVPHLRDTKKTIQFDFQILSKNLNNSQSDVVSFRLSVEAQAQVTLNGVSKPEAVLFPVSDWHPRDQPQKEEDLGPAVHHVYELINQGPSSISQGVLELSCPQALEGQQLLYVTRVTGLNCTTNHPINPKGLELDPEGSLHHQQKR
integrin α5β1, sequence (P08648 895-1049 limits assumed): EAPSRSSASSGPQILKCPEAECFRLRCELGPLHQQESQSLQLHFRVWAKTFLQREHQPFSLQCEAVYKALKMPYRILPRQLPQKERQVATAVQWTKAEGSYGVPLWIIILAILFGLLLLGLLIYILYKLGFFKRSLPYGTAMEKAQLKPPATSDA
integrin α5β1, sequence (P05556 21-798): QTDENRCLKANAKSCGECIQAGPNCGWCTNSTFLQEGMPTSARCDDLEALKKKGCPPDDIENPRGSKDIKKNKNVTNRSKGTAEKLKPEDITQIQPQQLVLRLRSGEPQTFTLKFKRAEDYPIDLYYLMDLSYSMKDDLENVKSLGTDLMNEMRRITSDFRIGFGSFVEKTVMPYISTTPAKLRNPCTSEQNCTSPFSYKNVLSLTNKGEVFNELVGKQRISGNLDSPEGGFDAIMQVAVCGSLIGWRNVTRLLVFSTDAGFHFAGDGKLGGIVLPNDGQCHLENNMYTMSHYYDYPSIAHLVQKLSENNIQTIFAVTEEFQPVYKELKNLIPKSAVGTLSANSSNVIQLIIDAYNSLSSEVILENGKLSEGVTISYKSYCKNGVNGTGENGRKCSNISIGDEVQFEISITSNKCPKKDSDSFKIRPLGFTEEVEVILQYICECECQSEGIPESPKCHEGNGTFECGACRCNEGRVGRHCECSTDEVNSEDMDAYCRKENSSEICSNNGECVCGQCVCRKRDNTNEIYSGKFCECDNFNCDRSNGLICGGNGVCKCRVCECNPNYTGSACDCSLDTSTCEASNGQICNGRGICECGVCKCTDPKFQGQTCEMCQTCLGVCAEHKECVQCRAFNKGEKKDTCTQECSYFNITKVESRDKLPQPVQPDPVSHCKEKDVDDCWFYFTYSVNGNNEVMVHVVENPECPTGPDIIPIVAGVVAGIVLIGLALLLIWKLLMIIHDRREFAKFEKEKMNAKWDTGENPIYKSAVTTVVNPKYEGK

Compound: O=C(CNC(=O)c1cccc(C(=O)NCC(=O)NCCCC[C@H](NC(=O)OCc2ccc(C(F)(F)F)cc2)C(=O)O)c1)NCCCC[C@H](NC(=O)OCc1ccc(C(F)(F)F)cc1)C(=O)O [Compound 1, N,N^1-Bis-[(5-(S)-carboxy-5-[((4-trifluoromethyl)benzyloxycarbonyl)amino]-pentyl)carboxamidomethyl]benzene-1,3-dicarboxamide]
Effect on MMP2 binding to integrin αvβ3 [1]: completely abrogated
Effect on binding between MMP2 and TIMP2 [2]: not inhibited
Inhibition of [14C]-Compound 1 binding to integrin αvβ3 by unlabeled compound (integrin αvβ3; 3 μM [14C]-Compound 1, 25-fold molar excess of unlabeled compound, FIG. 2C): inhibited
Direct binding to integrin αvβ3 (integrin αvβ3; [14C]-labeled Compound 1, titration, FIG. 2B): bound directly
Direct binding to control integrin α5β1 (integrin α5β1; [14C]-labeled Compound 1, FIG. 2B): minimal interaction
Direct binding to integrin α5β1 at higher concentrations (integrin α5β1; higher concentrations of compound, data not shown): negligible binding
Direct binding to MMP2 coated on the well (MMP2 [3]): no binding
Effect on MMP2-enhanced cell-mediated [3H]collagen IV degradation (β3CS-1 cells [4]): specifically abolished
Effect on [3H]collagen IV degradation by purified active MMP2 in the absence of cells (MMP2 [5]): still able to degrade
Effect on biotinylated MMP2 binding to β3-negative CS-1 cells (CS-1 cells): not diminished
Effect on enhanced biotinylated MMP2 binding to β3CS-1 cells (β3CS-1 cells [6]; 12 nM bMMP2, 10 μM compound, FIG. 3B): specifically suppressed
Biotinylated MMP2 binding to β3CS-1 cells, corrected for lane loading (β3CS-1 cells [6]; 10 μM compound, corrected by anti-actin mAb staining, FIG. 3B lane 2): reduced the binding of MMP2 to the β3CS-1 cells to the level observed in the absence αvβ3
Effect on development of new blood vessels in bFGF-stimulated CAM [7]: almost completely abolished
Levels of active MMP2 (62 kDa) in CAM tissues, treated versus untreated (MMP2 [8]): equivalent levels of active MMP2
Overall levels of MMP2 in CAM lysates (MMP2 [8]): unaffected
Overall tumor blood vessel density ([9]; anti-vWF immunofluorescence of tumor sections): gross reduction
Cell death within the tumor mass ([9]; single IV injection, 100 μl of 100 μM): significant cell death
Tumor weight ([9]; single IV injection, 100 μl of 100 μM, 10 days, wet weight): significantly retarded
Growth of transplanted CS-1 melanoma tumors on chick CAM ([9]; single IV injection, 100 μl of 100 μM, 10 days, FIG. 5A): significantly retarded
Tumor surface vasculature ([9]; single IV injection, 100 μl of 100 μM, FIG. 5A): gross reduction
Growth of CS-1 melanoma cells in vitro (CS-1 melanoma cells): not affected

Compound: COC(=O)[C@H](CCCCNC(=O)CNC(=O)c1ccccc1)NC(=O)OCc1ccc(C(F)(F)F)cc1 [Compound 6, (S)-Methyl 6-[2-(benzoylamino)acetamido]-2-[(4-trifluoromethyl)benzyloxycarbonyl)hexanoate]
Effect on MMP2 binding to integrin αvβ3 [1]: slightly less active than Compound 1

Effect on MMP2 binding to integrin αvβ3 [1]: lack of effect
Inhibition of bVN binding to immobilized integrin αvβ3 by peptide ([10]; 100 μM cyclic peptide, FIG. 2D): completely abolished
Effect on vitronectin binding to integrin αvβ3 ([10]; bVN 1 μg/ml, FIG. 2A): inhibited
Compound: cRGDfV [reference compound]
Inhibition of [14C]-Compound 1 binding to integrin αvβ3 by peptide (integrin αvβ3; 3 μM [14C]-Compound 1, 100 μM cyclic peptide, FIG. 2D): inability of the cRGDfV peptide to inhibit

Effect on MMP2 binding to integrin αvβ3 [1]: inactive
Compound: COC(=O)[C@H](CCCCNC(=O)CNC(=O)COCC(=O)O)NC(=O)OCc1ccc(C(F)(F)F)cc1 [Compound 8]

Compound: O=C(CNC(=O)c1cccc(C(=O)NCC(=O)NCCCC[C@H](NC(=O)c2ccccc2)C(=O)O)c1)NCCCC[C@H](NC(=O)c1ccccc1)C(=O)O [Compound 12, N,N′-Bis-[N-(-5-(S)-((benzoyl)amino)-5-(carboxy)pentyl)carboxamidomethyl]benzene-1,3-dicarboxamide]
Effect on MMP2 binding to integrin αvβ3 [1]: neither the control compound nor the control peptide cRADfV interfered
Effect on MMP2-enhanced cell-mediated [3H]collagen IV degradation (β3CS-1 cells [4]): negligible effect
Effect on [3H]collagen IV degradation by purified active MMP2 in the absence of cells (MMP2 [5]): still able to degrade
Effect on biotinylated MMP2 binding to β3-negative CS-1 cells (CS-1 cells): not diminished
Effect on development of new blood vessels in bFGF-stimulated CAM [7]: ineffective

— patent US6803383B2, “Inhibition of angiogenesis and tumor growth” (The Scripps Research Institute, priority 2000, dated 2004)
